Laboratory results from US4877893A, “Process for the preparation of 2-(O-alkyl)-2-thio-1,3,2-oxathiophospholanes” (priority 1987, dated 1989).

Assays:
Assay in all cases: Fungicidal effect on infected agar nutrient media, colony diameter
Assay type in all cases: cell-based
[1] = test system: Sclerotinia sclerotinia; details: 3rd day after treatment, untreated control 41.7
Procedure: (§1) Agar nutrient media (Diameter 70 MM, thickness 10 mm) infected by Sclerotonia sclerotinia suspension are treated with 20 EC formulations prepared according to Example 27 and comprising 1, 10, 100 and 1000 ppm, respectively of the active ingredient of the Formula I. The fungicidal effect of the compositions is evaluated on the 3rd day after treatment by measuring the diameter of the Fungi colonies.

[2] = test system: Penicillium cyclopium; details: 7th day after treatment, untreated 26.5
Procedure: as §1
The series of measureents described in Example 35 is carried out except that the agar nutrient media are infected by a Penicillium cyclopium Fungi strain and the test is evaluated on the 7th day after treatment.

[3] = test system: Alternaria tenuis; details: 5th day after treatment, untreated control 36.8
Procedure: as §1
The series of measurements according to Example 35 is carried out except that the agar nutrient media are infected by Alternaria Tenius and evaluation is accomplished on the 5th day after treatment.

Compound: CC1COP(=S)(OCCBr)S1 (stereo not drawn) [Compound 8]
- Diameter of colony (mm) ([1]; 1 ppm): 37.6 mm
- Diameter of colony (mm) ([1]; 10 ppm): 29.9 mm
- Diameter of colony (mm) ([1]; 100 ppm): 1.0 mm
- Diameter of colony (mm) ([1]; 1000 ppm): 0 mm
- Diameter of colony (mm) ([2]; 1 ppm): 20.0 mm
- Diameter of colony (mm) ([2]; 10 ppm): 18.3 mm
- Diameter of colony (mm) ([2]; 100 ppm): 7.9 mm
- Diameter of colony (mm) ([2]; 1000 ppm): 0 mm
- Diameter of colony (mm) ([3]; 1 ppm): 30.1 mm
- Diameter of colony (mm) ([3]; 10 ppm): 26.1 mm
- Diameter of colony (mm) ([3]; 100 ppm): 6.4 mm
- Diameter of colony (mm) ([3]; 1000 ppm): 0 mm

Compound: CC(I)COP1(=S)OC(C)CS1 (stereo not drawn) [Compound 24]
- Diameter of colony (mm) ([1]; 1 ppm): 38.1 mm
- Diameter of colony (mm) ([1]; 10 ppm): 29.0 mm
- Diameter of colony (mm) ([1]; 100 ppm): 3.2 mm
- Diameter of colony (mm) ([1]; 1000 ppm): 0 mm
- Diameter of colony (mm) ([2]; 1 ppm): 24.2 mm
- Diameter of colony (mm) ([2]; 10 ppm): 15.0 mm
- Diameter of colony (mm) ([2]; 100 ppm): 5.9 mm
- Diameter of colony (mm) ([2]; 1000 ppm): 0 mm
- Diameter of colony (mm) ([3]; 1 ppm): 34.8 mm
- Diameter of colony (mm) ([3]; 10 ppm): 25.5 mm
- Diameter of colony (mm) ([3]; 100 ppm): 6.1 mm
- Diameter of colony (mm) ([3]; 1000 ppm): 0 mm

Compound: CC1CSP(=S)(OC(C)C(C)I)O1 (stereo not drawn) [Compound 39]
- Diameter of colony (mm) ([1]; 1 ppm): 37.2 mm
- Diameter of colony (mm) ([1]; 10 ppm): 30.2 mm
- Diameter of colony (mm) ([1]; 100 ppm): 3.6 mm
- Diameter of colony (mm) ([1]; 1000 ppm): 0 mm
- Diameter of colony (mm) ([2]; 1 ppm): 21.1 mm
- Diameter of colony (mm) ([2]; 10 ppm): 15.8 mm
- Diameter of colony (mm) ([2]; 100 ppm): 4.7 mm
- Diameter of colony (mm) ([2]; 1000 ppm): 0 mm
- Diameter of colony (mm) ([3]; 1 ppm): 34.6 mm
- Diameter of colony (mm) ([3]; 10 ppm): 23.3 mm
- Diameter of colony (mm) ([3]; 100 ppm): 7.3 mm
- Diameter of colony (mm) ([3]; 1000 ppm): 0 mm

Compound: CCCOP1(=S)OCC(CC)S1 (stereo not drawn) [Compound 51, 2-(0-n-propyl)-2-thio-4-ethyl-1,3,2-oxathiophospholane]
- Diameter of colony (mm) ([1]; 1 ppm): 34.3 mm
- Diameter of colony (mm) ([1]; 10 ppm): 30.0 mm
- Diameter of colony (mm) ([1]; 100 ppm): 3.2 mm
- Diameter of colony (mm) ([1]; 1000 ppm): 0 mm
- Diameter of colony (mm) ([2]; 1 ppm): 24.9 mm
- Diameter of colony (mm) ([2]; 10 ppm): 18.7 mm
- Diameter of colony (mm) ([2]; 100 ppm): 8.2 mm
- Diameter of colony (mm) ([2]; 1000 ppm): 0 mm
- Diameter of colony (mm) ([3]; 1 ppm): 35.1 mm
- Diameter of colony (mm) ([3]; 10 ppm): 24.3 mm
- Diameter of colony (mm) ([3]; 100 ppm): 6.9 mm
- Diameter of colony (mm) ([3]; 1000 ppm): 0 mm

Compound: CC1CSP(=S)(OCCBr)O1 (stereo not drawn) [Compound 5]
- Diameter of colony (mm) ([1]; 1 ppm): 35.4 mm
- Diameter of colony (mm) ([1]; 10 ppm): 29.2 mm
- Diameter of colony (mm) ([1]; 100 ppm): 1.7 mm
- Diameter of colony (mm) ([1]; 1000 ppm): 0 mm
- Diameter of colony (mm) ([2]; 1 ppm): 20.1 mm
- Diameter of colony (mm) ([2]; 10 ppm): 19.5 mm
- Diameter of colony (mm) ([2]; 100 ppm): 7.8 mm
- Diameter of colony (mm) ([2]; 1000 ppm): 0 mm
- Diameter of colony (mm) ([3]; 1 ppm): 34.9 mm
- Diameter of colony (mm) ([3]; 10 ppm): 22.3 mm
- Diameter of colony (mm) ([3]; 100 ppm): 7.9 mm
- Diameter of colony (mm) ([3]; 1000 ppm): 0 mm

Compound: CC(I)C(C)OP1(=S)OCCS1 (stereo not drawn) [Compound 30]
- Diameter of colony (mm) ([1]; 1 ppm): 34.8 mm
- Diameter of colony (mm) ([1]; 10 ppm): 30.0 mm
- Diameter of colony (mm) ([1]; 100 ppm): 0 mm
- Diameter of colony (mm) ([1]; 1000 ppm): 0 mm
- Diameter of colony (mm) ([2]; 1 ppm): 21.2 mm
- Diameter of colony (mm) ([2]; 10 ppm): 20.0 mm
- Diameter of colony (mm) ([2]; 100 ppm): 7.2 mm
- Diameter of colony (mm) ([2]; 1000 ppm): 0 mm
- Diameter of colony (mm) ([3]; 1 ppm): 30.1 mm
- Diameter of colony (mm) ([3]; 10 ppm): 26.7 mm
- Diameter of colony (mm) ([3]; 100 ppm): 7.2 mm
- Diameter of colony (mm) ([3]; 1000 ppm): 0 mm

Compound: CC1CSP(=S)(OC(C)C(C)Cl)O1 (stereo not drawn) [Compound 37]
- Diameter of colony (mm) ([1]; 1 ppm): 39.2 mm
- Diameter of colony (mm) ([1]; 10 ppm): 27.1 mm
- Diameter of colony (mm) ([1]; 100 ppm): 0 mm
- Diameter of colony (mm) ([1]; 1000 ppm): 0 mm
- Diameter of colony (mm) ([2]; 1 ppm): 19.9 mm
- Diameter of colony (mm) ([2]; 10 ppm): 17.5 mm
- Diameter of colony (mm) ([2]; 100 ppm): 6.6 mm
- Diameter of colony (mm) ([2]; 1000 ppm): 0 mm
- Diameter of colony (mm) ([3]; 1 ppm): 30.8 mm
- Diameter of colony (mm) ([3]; 10 ppm): 21.9 mm
- Diameter of colony (mm) ([3]; 100 ppm): 5.6 mm
- Diameter of colony (mm) ([3]; 1000 ppm): 0 mm

Compound: CC(Cl)COP1(=S)OC(C)CS1 (stereo not drawn) [Compound 22, 2-(0-2'-methyl-2'-chloroethyl)-2-thio-5-methyl-1,3,2-oxathiophospholane]
- Diameter of colony (mm) ([1]; 1 ppm): 37.8 mm
- Diameter of colony (mm) ([1]; 10 ppm): 30.1 mm
- Diameter of colony (mm) ([1]; 100 ppm): 2.9 mm
- Diameter of colony (mm) ([1]; 1000 ppm): 0 mm
- Diameter of colony (mm) ([2]; 1 ppm): 24.6 mm
- Diameter of colony (mm) ([2]; 10 ppm): 16.2 mm
- Diameter of colony (mm) ([2]; 100 ppm): 6.7 mm
- Diameter of colony (mm) ([2]; 1000 ppm): 0 mm
- Diameter of colony (mm) ([3]; 1 ppm): 34.4 mm
- Diameter of colony (mm) ([3]; 10 ppm): 26.1 mm
- Diameter of colony (mm) ([3]; 100 ppm): 8.7 mm
- Diameter of colony (mm) ([3]; 1000 ppm): 0 mm

Compound: CCCCC(C)OP1(=S)OC(C)C(C)S1 (stereo not drawn) [Compound 65]
- Diameter of colony (mm) ([1]; 1 ppm): 35.8 mm
- Diameter of colony (mm) ([1]; 10 ppm): 30.1 mm
- Diameter of colony (mm) ([1]; 100 ppm): 3.7 mm
- Diameter of colony (mm) ([1]; 1000 ppm): 0 mm
- Diameter of colony (mm) ([2]; 1 ppm): 24.6 mm
- Diameter of colony (mm) ([2]; 10 ppm): 19.1 mm
- Diameter of colony (mm) ([2]; 100 ppm): 7.5 mm
- Diameter of colony (mm) ([2]; 1000 ppm): 0 mm
- Diameter of colony (mm) ([3]; 1 ppm): 33.8 mm
- Diameter of colony (mm) ([3]; 10 ppm): 25.3 mm
- Diameter of colony (mm) ([3]; 100 ppm): 6.6 mm
- Diameter of colony (mm) ([3]; 1000 ppm): 0 mm
